What all share (type): cell-based, human
The test system of one experiment is A549 cells. The experiment is described as follows: MTT cell viability assay. Particulars: Homo sapiens, A549, 24 h treatment. As to the method:
(§1) The cell viability was assessed using an MTT assay, determining the half-maximal inhibitory concentration (IC50) to screen right-half RT analogs (DH_18, DH_21, DH_32, DH_35, DH_38, and DH_39). Human NSCLC cells (A549, H23, and H292) were seeded in a 96-well cell culture plate at a density of 1 × 10^4 cells per well and incubated for 24 h at 37 °C. Subsequently, the culture medium was aspirated, and a complete medium with varying concentrations (0–100 μM) of right-half RT analogs was added for 24 h. Following the removal of the compound-containing medium, an MTT reagent at a concentration of 4 mg/mL was applied and incubated for 3 h at 37 °C. The MTT reagent was replaced with 100 μL of DMSO to dissolve the formazan crystals. The measurement of the formazan product was conducted at 570 nm utilizing a microplate reader. RT served as the positive control in this experiment.
On the technique in general: Tetrazolium assays rely on reduction of a dye to a coloured formazan, in cell work by metabolically active cells.

The test system of a further experiment is H23 cells. The experiment is described as follows: MTT cell viability assay. The following applies: Homo sapiens, NCI-H23, H23, 24 h treatment. As to the method: as §1
For another experiment, the system named is H292 cells. The experiment is described as follows: MTT cell viability assay. Particulars: Homo sapiens, NCI-H292, H292, 24 h treatment. As to the method:
as §1

Experiment [1] deals with NSCLC cells (A549, H23, and H292). The experiment is described as follows: MTT cell viability assay, statements over all lung cancer lines. The following applies: summary over A549, H23 and H292, 24 h. Here is the method: as §1
The test system of experiment [2] is CSC spheroids of A549, H23, and H292 cells. The experiment is described as follows: 3D CSC spheroid formation with immunofluorescence. The following applies: 50 nM, 24 h, immunofluorescence. Here is the method:
A three-dimensional (3D) spheroid was employed to generate the spheroids containing CSC subpopulations from lung cancer cells. For CSC-rich population establishment, the spheroid culture assay used in this study was slightly modified from a previously described method. Lung cancer cells, specifically NSCLC cells (A549, H23, and H292), were seeded onto a 24-well ultra-low attachment plate, with approximately density of 2.5 × 10^3 cells per well in a medium with a 1% FBS and Nutristem mix. The primary spheroids were allowed to form for 7 days. Every 2 days, fresh medium with 1% FBS and Nutristem mix was replenished. On day 7 of primary spheroid culture, primary spheroids were resuspended into single cells using trypsin, and again 2.5 × 10^3 cells/well were seeded into a 24-well ultra-low attachment plate. Secondary spheroids were allowed to form for 10 days. After 10 days, the secondary spheroids were treated with 50 nM concentration DH_32 for 24 h treatment. The spheroids that had undergone treatment were retrieved through centrifugation at 1000× g for 30 s and then rinsed with PBS. The spheroids were fixed with 4% paraformaldehyde in a 50 μL PBS solution for 20 min at room temperature, and then they were made permeable by treating them with 0.1% Triton X in PBS for 5 min at room temperature. The spheroids were exposed to a mixture of 5% FBS and 2% BSA in PBS for 1 h at room temperature to prevent non-specific protein interactions. Subsequently, the spheroids were incubated with primary antibodies (CD133, CD44, and OCT4) at a 1:250 dilution in a 30 μL PBS solution containing 2.5% FBS and 1% BSA, and this incubation took place overnight at 4 °C. On the subsequent day, the spheroids were rinsed with PBS and then exposed to secondary antibodies (Alexa Fluor 594-conjugated goat anti-rabbit IgG (H+L) and Alexa Fluor 488-conjugated goat anti-mouse IgG (H+L)) at a 1:500 dilution in a 30 μL PBS solution containing 2.5% FBS and 1% BSA at room temperature for 1 h 30 min. These spheroids were subjected to staining with Hoechst 33342 (Sigma, St. Louis, MO, USA) at a concentration of 10 μg/mL for a duration of 15 min at room temperature. Subsequently, the fluorescence signals were observed using a fluorescence microscope (Olympus IX 51 with DP70; Olympus America Inc., Center Valley, PA, USA). The intensity of fluorescence was quantified using Image J software. NSCLC spheroids treated with RT at 50 nM and cisplatin at 50 nM served as the positive control.

As a reminder, the IC50 is the concentration that inhibits the measured activity by half.

In the case of `COC1=C(C)C(=O)C2=C(C1=O)[C@@H]1CN(Cc3cccnc3)[C@@H](C#N)[C@H](C2)N1C` [DH_21, (1R,4R,5S)-9-methoxy-8,11-dimethyl-7,10-dioxo-3-(pyridin-3-ylmethyl)-1,2,3,4,5,6,7,10-octahydro-1,5-epiminobenzo[d]azocine-4-carbonitrile], the IC50 in the experiment with A549 cells is 51.4 ± 1.5 µM; with H23 cells, 49.4 ± 1.01 µM; in the experiment with H292 cells it was 54.1 ± 1.15 µM; in experiment [1] (Homo sapiens, 24 h), 28 to 77 µM.
In the case of `N.N.[Cl][Pt][Cl]` [cisplatin, reference compound], in experiment [2], the “levels of CD133, CD44, and OCT4 in CSC spheroids” value is on record as “could not alter CSC markers”.
Turning to `COC1=C(C)C(=O)C2=C(C1=O)[C@@H]1CN(CCO)[C@@H](C#N)[C@H](C2)N1C` [DH_38, (1R,4R,5S)-3-(2-hydroxyethyl)-9-methoxy-8,11-dimethyl-7,10-dioxo-1,2,3,4,5,6,7,10-octahydro-1,5-epiminobenzo[d]azocine-4-carbonitrile], the IC50 is 43.8 ± 1.43 µM in the experiment on A549 cells; 50.4 ± 1.18 µM in the experiment on H23 cells; 43.7 ± 0.86 µM in the experiment on H292 cells; 28 to 77 µM in experiment [1] (Homo sapiens, 24 h).
Taken in the same sequence, the figures for `C#CCN1C[C@H]2C3=C(C[C@@H]([C@@H]1C#N)N2C)C(=O)C(C)=C(OC)C3=O` [DH_35, (1R,4R,5S)-9-methoxy-8,11-dimethyl-7,10-dioxo-3-(prop-2-yn-1-yl)-1,2,3,4,5,6,7,10-octahydro-1,5-epiminobenzo[d]azocine-4-carbonitrile] were 76.3 ± 2.98 µM, 56 ± 1.78 µM, 57.7 ± 1.45 µM and 28 to 77 µM.
Consider `COC1=C(C)C(=O)C2=C(C1=O)[C@@H]1CN(CCN3C(=O)c4ccccc4C3=O)[C@@H](C#N)[C@H](C2)N1C` [DH_39, (1R,4R,5S)-3-(2-{1,3-dioxoisoindolin-2-yl}ethyl)-9-methoxy-8,11-dimethyl-7,10-dioxo-1,2,3,4,5,6,7,10-octahydro-1,5-epiminobenzo[d]azocine-4-carbonitrile], for which the IC50 was 70 ± 0.85 µM in the experiment with A549 cells; 73.3 ± 1.17 µM in the experiment with H23 cells; 65.4 ± 1.13 µM in the experiment with H292 cells; 28 to 77 µM in experiment [1] (Homo sapiens, 24 h).
Regarding `COC1=C(C)C(=O)C2=C(C1=O)[C@@H]1CN(Cc3ccccn3)[C@@H](C#N)[C@H](C2)N1C` [DH_18, (1R,4R,5S)-9-methoxy-8,11-dimethyl-7,10-dioxo-3-(pyridin-2-ylmethyl)-1,2,3,4,5,6,7,10-octahydro-1,5-epiminobenzo[d]azocine-4-carbonitrile], the IC50 in the experiment on A549 cells was 28 ± 0.86 µM; with H23 cells, 28.1 ± 0.83 µM; in the experiment on H292 cells, 29.5 ± 0.75 µM; in experiment [1] (Homo sapiens, 24 h), 28 to 77 µM; in experiment [1], roughly 30 µM.

Values taken from paper PMC10744608, “Simplified Synthesis of Renieramycin T Derivatives to Target Cancer Stem Cells via β-Catenin Proteasomal Degradation in Human Lung Cancer” (Marine Drugs, 2023).
